Laboratory results taken from the supplement of paper PMC10307832.

What was measured:
Assay in all cases: relative viability (nuclei count vs DMSO), 5 days (fraction); higher = more cells survive
NCI-H1993 = tested on: NCI-H1993
Method in brief: (§1)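 Lung cancer cell lines in 1536-well plates were dosed by pin tool the day after seeding, either with one drug alone or with a fixed anchor-drug dose plus five library-drug doses (not always all listed) in √10 steps. After 5 days, cells were fixed and their nuclei stained in one step (final 0.05% Triton X-100, 1% formaldehyde, 1 ug/ml Hoechst), then counted on 4× images. Relative viability is the nuclei count in treated wells divided by that in vehicle wells. Values are medians of duplicate plates.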

NCI-H2023 = tested on: NCI-H2023
Method in brief: as §1

NCI-H2085 = tested on: NCI-H2085
Method in brief: as §1

NCI-H2087 = tested on: NCI-H2087
Method in brief: as §1

NCI-H3122 = tested on: NCI-H3122
Method in brief: as §1

NCI-H596 = tested on: NCI-H596
Method in brief: as §1

NCI-H647 = tested on: NCI-H647
Method in brief: as §1

NCI-H650 = tested on: NCI-H650
Method in brief: as §1

PC-14 = tested on: PC-14
Method in brief: as §1

RERF-LC-KJ = tested on: RERF-LC-KJ
Method in brief: as §1

SK-MES-1 = tested on: SK-MES-1
Method in brief: as §1

O=C(O)CCCCC(CCSCc1ccccc1)SCc1ccccc1 (stereo not given) [CPI-613] + C[C@]1(O)C[C@@H](c2nc(-c3ccc4ccc(-c5ccccc5)nc4c3)c3c(N)nccn32)C1 [Linsitinib] (partner 1 µM) showed a relative viability (NCI-H1993; first compound 5 µM) of 0.71, a relative viability (NCI-H1993; first compound 15.81 µM) of 0.671 and a relative viability (NCI-H1993; first compound 50 µM) of 0.781. For the same compound, the relative viability (NCI-H1993; first compound 158.11 µM) was 0.61, the relative viability (NCI-H1993; first compound 500 µM) was 0.432 and the relative viability (NCI-H2023; first compound 5 µM) was 0.614. It also gave a relative viability (NCI-H2023; first compound 15.81 µM) of 0.698, a relative viability (NCI-H2023; first compound 50 µM) of 0.668 and a relative viability (NCI-H2023; first compound 158.11 µM) of 0.243. The relative viability (NCI-H2023; first compound 500 µM) was 0.0069, the relative viability (NCI-H2085; first compound 5 µM) was 0.854 and the relative viability (NCI-H2085; first compound 15.81 µM) was 0.759. The relative viability (NCI-H2085; first compound 50 µM) was 0.95, the relative viability (NCI-H2085; first compound 158.11 µM) was 0.548 and the relative viability (NCI-H2085; first compound 500 µM) was 0.2. It also gave a relative viability (NCI-H2087; first compound 5 µM) of 1.01, a relative viability (NCI-H2087; first compound 15.81 µM) of 0.758 and a relative viability (NCI-H2087; first compound 50 µM) of 0.868. It also gave a relative viability (NCI-H2087; first compound 158.11 µM) of 0.178, a relative viability (NCI-H2087; first compound 500 µM) of 0.0125 and a relative viability (NCI-H3122; first compound 5 µM) of 0.985. For the same compound, the relative viability (NCI-H3122; first compound 15.81 µM) was 1.02, the relative viability (NCI-H3122; first compound 50 µM) was 0.988 and the relative viability (NCI-H3122; first compound 158.11 µM) was 0.644. For the same compound, the relative viability (NCI-H3122; first compound 500 µM) was 0.0543, the relative viability (NCI-H596; first compound 5 µM) was 1.02 and the relative viability (NCI-H596; first compound 15.81 µM) was 1.04. For the same compound, the relative viability (NCI-H596; first compound 50 µM) was 1.14, the relative viability (NCI-H596; first compound 158.11 µM) was 0.519 and the relative viability (NCI-H596; first compound 500 µM) was 0.0361. The relative viability (NCI-H647; first compound 5 µM) was 1.16, the relative viability (NCI-H647; first compound 15.81 µM) was 1.13 and the relative viability (NCI-H647; first compound 50 µM) was 0.951. It also gave a relative viability (NCI-H647; first compound 158.11 µM) of 0.107, a relative viability (NCI-H647; first compound 500 µM) of 0.0169 and a relative viability (NCI-H650; first compound 5 µM) of 0.905. The relative viability (NCI-H650; first compound 15.81 µM) was 0.807, the relative viability (NCI-H650; first compound 50 µM) was 0.975 and the relative viability (NCI-H650; first compound 158.11 µM) was 0.746. For the same compound, the relative viability (NCI-H650; first compound 500 µM) was 0.747, the relative viability (PC-14; first compound 5 µM) was 0.941 and the relative viability (PC-14; first compound 15.81 µM) was 0.874. The relative viability (PC-14; first compound 50 µM) was 0.928, the relative viability (PC-14; first compound 158.11 µM) was 0.857 and the relative viability (PC-14; first compound 500 µM) was 1.02. It also gave a relative viability (RERF-LC-KJ; first compound 5 µM) of 0.878, a relative viability (RERF-LC-KJ; first compound 15.81 µM) of 0.869 and a relative viability (RERF-LC-KJ; first compound 50 µM) of 0.887. For the same compound, the relative viability (RERF-LC-KJ; first compound 158.11 µM) was 0.87, the relative viability (RERF-LC-KJ; first compound 500 µM) was 0.885 and the relative viability (SK-MES-1; first compound 5 µM) was 1.08. For the same compound, the relative viability (SK-MES-1; first compound 15.81 µM) was 1.04, the relative viability (SK-MES-1; first compound 50 µM) was 1.03 and the relative viability (SK-MES-1; first compound 158.11 µM) was 0.863. The relative viability (SK-MES-1; first compound 500 µM) was 0.988.
